Measurements from PubChem BioAssay AID1259427 (Fisher Drug Discovery Resource Center, 2018).
The source made the active and inactive calls.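 How the source made its calls: active means EC50 at or below a set limit, with no effect in the paired counter-screen assay; inactive means the rest.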

Molecular target: Aedes aegypti neuropeptide Y-like receptor 7 (NPYLR7)
Experiment: agonists of mosquito NPYLR7 receptor, confirmation, cell-based, Aedes aegypti, hit validation, mosquito biting behavior (AID 1259427);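 further: potency of agonists that activate the receptor and raise the calcium signal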
Conditions: HEK293T NPYLR7/Galpha15/GCaMP6s, calcium fluorescence

SMILES | EC50
COC(=O)c1cnc(/C=C/c2cc(C)c(O)c(C)c2)s1 | > 20 µM (inactive)
CCCCCN=C(N)NN=Cc1c[nH]c2ccc(OC)cc12 | 7.37 µM
C=CCN1C(=O)/C(=C\c2ccc(O)cc2)SC1=S | > 20 µM (inactive)
CC(C)Nc1ccc(NS(=O)(=O)NCc2ccccc2)cn1 | > 20 µM (inactive)
O=c1nc2sc3[nH]c(=O)sc3cc-2s1 | < 0.039 µM (inactive)
CCN(CC)c1ccc2cc(C(N)=O)/c(=N\NC(N)=S)oc2c1 | < 0.039 µM (inactive)
CC(C)CN1C(=O)C(=Cc2c(N3CCN(CCO)CC3)nc3ccccn3c2=O)SC1=S | > 20 µM (inactive)
C[C@H](O)C(=O)C1=Nc2c(nc(N)[nH]c2=O)NC1 | > 20 µM (inactive)
N#CC(C#N)=C1C=C2C=C(N3CCCCC3)CCC2CC1 (stereo unspecified) | < 0.039 µM (inactive)
Cc1nn(C)c(Cl)c1/C=C1/CCCc2c1nc1ccccc1c2C(=O)O | 19.2 µM
CCOc1cc(/C=C2/Oc3cc(O)ccc3C2=O)cc(Cl)c1OCC(=O)N(C)C | 16.6 µM
CC1(C)OC2OC(C(O)c3cc(O)c4c(c3O)C(=O)c3ccccc3C4=O)C(C)(O)C2O1 (stereo unspecified) | inactive
COc1ccc(OC)c(CCNc2nc3cnc(-c4cccc5ccccc45)cc3n2C)c1 | 12.4 µM
N#C/C(=C\c1ccc(O)c(O)c1)C(=O)NCCCc1ccccc1 | 17.4 µM
O=C(O)CCN1C(=O)/C(=C/c2ccc(O)cc2)SC1=S | inactive
CCCC1CCC(C(=O)Nc2nnc(SCC)s2)CC1 (stereo unspecified) | > 20 µM (inactive)
CC(=O)Oc1ccc(Cn2c(C)c(C(=O)NCc3ccc(C#N)cc3)sc2=O)cc1 | > 20 µM (inactive)
CC(C)(C)NCC(O)c1ccc(O)c(CO)c1 (stereo unspecified) | > 20 µM (inactive)
CCN(CC)c1ccc2c(-c3ccccc3C(=O)O)c3ccc(=[N+](CC)CC)cc-3oc2c1 | inactive
CCN=c1cc2oc3cc(NCC)c(C)cc3c(-c3ccccc3C(=O)OCC)c-2cc1C | inactive
COCCn1c(C)cn2c3c(=O)n(Cc4ccc(Cl)cc4)c(=O)n(C)c3nc12 | > 20 µM (inactive)
CSCCC(C(=O)O)N1C(=O)/C(=C/c2ccc(O)cc2)SC1=S (stereo unspecified) | > 20 µM (inactive)
CC(=O)Nc1nc(COC(=O)c2[nH]c(C)c(C(=O)OC(C)C)c2C)cs1 | > 20 µM (inactive)
O=C1C(=Cc2ccccc2O)NC(=S)N1Cc1ccco1 | inactive
COc1ccc(-n2ccnc2-c2nc(-c3cccs3)oc2C)cn1 | > 20 µM (inactive)
Cc1cc(O)c(CN2CCCCC2)c2c1C(=O)/C(=C/c1cc3ccccc3o1)O2 | > 20 µM (inactive)

SMILES | EC50
CN(Cc1ccccc1)C1=CC2=CC(=C(C#N)C#N)CCC2CC1 (stereo unspecified) | 5.13 µM
Cc1cc2c(c(-c3ccc4c(cnn4C)c3)c1)OC(CN)C2 (stereo unspecified) | > 20 µM (inactive)
N#CC(C#N)=C1C=C2C=C(N3CCN(Cc4ccccc4)CC3)CCC2CC1 (stereo unspecified) | > 20 µM (inactive)
N#C/C(=C\c1ccc(O)c(O)c1)C(=O)NCc1ccccc1 | > 20 µM (inactive)
CCN1C(=Cc2cc(C)[n+](C3CCCCC3)c(C)c2)Sc2ccccc21 | > 20 µM (inactive)
O=C(CSc1cn(CC(=O)N2CCCCCC2)c2ccccc12)NC1CCCC1 | > 20 µM (inactive)
O=C(Cc1ccc2c(c1)CCC2)NCC1CCN(c2ccccc2)C1 (stereo unspecified) | > 20 µM (inactive)
O=C1CSC(=S)N1N=Cc1cc(Br)c(O)c(Br)c1 | inactive
O=C(O)CSc1ccc2c3c(cccc13)C(=O)c1ccccc1-2 | inactive
O=[N+]([O-])c1cc(S(=O)(=O)Nc2cc(Cl)ccc2F)ccc1F | > 20 µM (inactive)
CCOC(=O)c1c(-c2ccccc2)csc1N=Cc1nc(-c2ccccc2)oc1O | > 20 µM (inactive)
CCOC(=O)c1c(-c2ccccc2)csc1N=Cc1nc(-c2ccco2)oc1O | > 20 µM (inactive)
O=C(NCCSc1ccc(Cl)cc1)c1ccc2c(=O)n3c(nc2c1)CCC3 | > 20 µM (inactive)
COc1ccc2c(C)nc(N=C(N)N)nc2c1 | 19.6 µM
CC(=O)OC(C)C[N+](C)(C)C (stereo unspecified) | > 20 µM (inactive)
CCn1c(O)c(C=Nc2c(C#N)c(C)c(C)n2C2CCCCC2)c(=O)n(CC)c1=S | inactive
CSc1nnc2c(n1)OC(c1ccc(OC(=O)c3ccc(Br)cc3)cc1)Nc1ccccc1-2 (stereo unspecified) | > 20 µM (inactive)
Cc1csc(-c2cc3ccc(O)c(CN4CCN(CCO)CC4)c3oc2=O)n1 | < 0.039 µM (inactive)
CC1(C)CC(c2[nH]cnc2-c2ccccc2)CCO1 (stereo unspecified) | > 20 µM (inactive)
CN=c1nc(-c2ccccc2)n(-c2ccccc2)s1 | 19.9 µM
COc1ccc(C(=O)C=Cc2cc(Br)c(O)c(OC)c2)cc1F | inactive
Cc1ccc(C(=O)C=Cc2ccc(N(C)C)cc2)o1 | < 0.039 µM (inactive)
CC1(C)CC(=O)C2C(=Nc3[nH]c(=S)[nH]c(=O)c3C2c2ccc3c(c2)OCO3)C1 (stereo unspecified) | > 20 µM (inactive)
O=[N+]([O-])c1c[n+]([O-])n(-c2cccc(Cl)c2)n1 | > 20 µM (inactive)
COc1cc(/C=C/c2nc3ccccc3o2)cc(Cl)c1O | inactive
CCOC(=O)c1ccc(N=c2oc3cc(O)ccc3cc2-c2nc3ccccc3[nH]2)cc1 | inactive

SMILES | EC50
O=P1(Nc2cc(C(F)(F)F)ccc2Cl)C=C(c2ccccc2)OC(c2ccccc2)=C1 | > 20 µM (inactive)
CC1=CC(C)C(C(=O)O)C(C(=O)O)C1 (stereo unspecified) | > 20 µM (inactive)
CC[C@@]1(O)C(=O)OCc2c1cc1n(c2=O)Cc2cc3c(CN(C)C)c(O)ccc3nc2-1 | inactive
O=C1OC2(c3cc(Br)c(O)cc3Oc3c2cc(Br)c(O)[c]3[Hg])c2ccccc21 (stereo unspecified) | < 0.039 µM (inactive)
COc1ccccc1CCNC(=O)c1ccc(Cn2c(C)nc3ccccc32)o1 | > 20 µM (inactive)
COc1ccc(OC)c(CCNc2nc3cnc(-c4ccc5c(c4)OCO5)cc3n2C)c1 | 8.34 µM
Cc1c(NC(=O)COC(=O)C(C#N)=Cc2ccc(N(C)C)cc2)c(=O)n(-c2ccccc2)n1C | > 20 µM (inactive)
CCN(CC)c1ccc(/C=C2\SC(=S)N(CCS(=O)(=O)O)C2=O)cc1 | inactive
Nc1ncnc2c1ncn2[C@@H]1O[C@H](CO)[C@@H](O)[C@H]1O | inactive
CNC(=O)NC(=O)CCN1CC(c2ccccc2Cl)c2c([nH]c3ccccc23)C1C (stereo unspecified) | > 20 µM (inactive)
Cc1cc(C=C2Sc3ccccc3N2C)cc(C)[n+]1-c1ccccc1 | inactive
C=CCNc1ccc2c3c(cccc13)C(=O)N(c1ccccc1)C2=O | inactive
COc1ccc(CN2CCN(Cc3cccn3-c3ncccn3)CC2CCO)c(C)c1C (stereo unspecified) | > 20 µM (inactive)
COc1ccc2nc(C=Cc3cc(Br)c(O)c(OC)c3)sc2c1 | > 20 µM (inactive)
Cc1cc2nc3c(=O)[nH]c(=O)nc-3n(CC(O)C(O)C(O)CO)c2cc1C (stereo unspecified) | < 0.039 µM (inactive)
COC(=O)C(C)Sc1nc2sc3c(c2c(=O)n1C)CCC3 (stereo unspecified) | > 20 µM (inactive)
O=c1oc2cc(O)ccc2cc1-c1nc2ccccc2s1 | inactive
N#Cc1cccc(C(=O)N2CCN(C(c3ccccc3)c3ccc(Br)cc3)CC2)c1 (stereo unspecified) | > 20 µM (inactive)
COCCN=Cc1cc(I)cc(I)c1O | > 20 µM (inactive)
CCc1nn(C(C)C(=O)NC(C)CCc2ccco2)c(=O)c2cc3occc3n12 (stereo unspecified) | inactive
CCCCCn1c(=O)c2c(nc3n2CCN3c2cc(C)cc(C)c2)n(C)c1=O | > 20 µM (inactive)
CCN1/C(=C/C2=CC(=O)CC(C)(C)C2)Sc2ccccc21 | inactive
CN1C(=S)N(c2ccc3c(c2)CCC3)C(=O)/C1=C\c1ccncc1 | > 20 µM (inactive)
COc1ccc(NC[C@@H]2C=C(C)[C@H](Cc3nnc(C)o3)C[C@H]2C(C)C)cn1 | > 20 µM (inactive)
Nc1c2c(nc3sc4c(c13)CCCC4)CCCCC2 | > 20 µM (inactive)
CCCCN(C)C1=CC2=CC(=C(C#N)C#N)CCC2CC1 (stereo unspecified) | < 0.039 µM (inactive)

SMILES | EC50
CCOc1cc(C=O)c(O)c(C=O)c1 | inactive
FC(F)(F)c1cc(-c2cccs2)nc2ncnn12 | > 20 µM (inactive)
COc1cc(-c2nc3n(n2)C(c2ccc(O)cc2)C(C(N)=O)=C(C)N3)cc(OC)c1OC (stereo unspecified) | > 20 µM (inactive)
CNC[C@@H](O)c1ccc(O)c(O)c1 | > 20 µM (inactive)
CCOC(=O)C1=C(O)/C(=C\c2ccc(N(C)C)cc2)SC1=Nc1ccc(OC)cc1OC | > 20 µM (inactive)
COc1ccc(Cl)cc1NC(=O)/C(C#N)=C/c1coc2ccc(C)cc2c1=O | > 20 µM (inactive)
CCOC(=O)c1cc(O)c(C(=O)OCC)s1 | > 20 µM (inactive)
COc1cc(NC(=O)N2CC(=O)N3CCc4c(F)cccc4C3C2)cc(OC)c1OC (stereo unspecified) | > 20 µM (inactive)
CCOc1cccc(C=C2Oc3cc(O)ccc3C2=O)c1OC | > 20 µM (inactive)
CCN1CCc2c(sc(NC(=O)c3ccccc3)c2-c2nc3ccccc3s2)C1 | > 20 µM (inactive)
Cc1ccc(OCCNC(=O)N2CCN(S(=O)(=O)c3ccccc3Cl)CC2)c(C)c1 | > 20 µM (inactive)
Cc1ccc2nc(Cn3cnc4c(Cl)cc(Cl)cc4c3=O)cc(=O)n2c1 | > 20 µM (inactive)
CC1C(=O)c2cccc3c(=O)n(-c4ccccc4)c(O)c(c23)C1=O (stereo unspecified) | 5.77 µM
CCCc1[nH]n(-c2ccc(Cl)c(Cl)c2)c(=O)c1/C=C1\NC(=O)N(Cc2ccc(C)cc2)C1=O | > 20 µM (inactive)
CCCN1CCc2c(sc3c2c(NC(CC)CO)nc2nnnn23)C1 (stereo unspecified) | > 20 µM (inactive)
N#Cc1c(N)nc2c(c1N)C(Sc1ccccc1)c1ccc(O)cc1O2 (stereo unspecified) | < 0.039 µM (inactive)
CCOCCCN1C(=O)C(=Cc2ccccc2O)NC1=S | inactive
Cc1cc(O)c(CN2CCCC2)c2c1C(=O)/C(=C/c1cc3ccccc3o1)O2 | > 20 µM (inactive)
O=C(c1cnn(-c2ccccc2)n1)N1CCCC(COCc2ccccc2)C1 (stereo unspecified) | inactive
CCN1CC=C2C(C#N)C(=N)C(C#N)(C#N)C(c3cccs3)C2C1 (stereo unspecified) | > 20 µM (inactive)
O[C@@H]1CN(Cc2ccncc2Cl)CC[C@H]1c1ccc2c(c1)OCO2 | > 20 µM (inactive)
CCN1CCc2c(sc(NC(=O)C3=COCCO3)c2-c2nc3ccccc3s2)C1 | inactive
O=C(N=Nc1c(O)[nH]c2ccc(Br)cc12)c1ccccc1Cl | > 20 µM (inactive)
